US20090105324A1, “IMIDAZOLE DERIVATIVES FOR USE AS EDG-1 ANTAGONISTS” (AstraZeneca AB, priority 2006, published 2009)

Target: T1, EDG-1/S1P1 receptor (Homo sapiens, UniProt P21453)
T1 construct: expressed in transfected cells; host or cells: U2OS (human osteogenic sarcoma), EDG-1 Transfluor U2OS WT Clone #37
Assay: In Vitro Cell Based Receptor Activation Assay-Transfluor Assay
Conditions: EDG-1 Transfluor U2OS WT Clone #37 cells; beta-arrestin GFP relocalization in presence of S1P
Source text: This cell-based assay was designed to assess the ability of small molecule antagonists to inhibit activation of the GPCR S1P1 in the presence of its cognate ligand S1P. The assay used technology initially developed by Norak Biosciences (Xsira Pharmaceutical) and presently owned by Molecular Devices. A human osteogenic sarcoma (U2OS) cell line overexpressing the EDG-1/S1P1) receptor as well as a beta-arrestin/green fluorescent protein (GFP) construct hereafter termed EDG-1 Transfluor U2OS WT Clone #37 was employed.
Using a high content screening approach (Cellomics Arrayscan), receptor activity was measured by assessment of the relocalization of beta-arrestin GFP in response to stimulation of EDG-1 by S1P. Specifically, EDG-1 Transfluor U2OS WT Clone #37 cells were plated at a density of 6250 cells in 40 uL medium per well in 384 well plastic bottomed inicrotiter plates (BD Falcon) and incubated overnight at 37° C./5% CO2. Prior to screening, compounds were dissolved in 100% dimethyl sulfoxide (DMSO) to a final stock concentration of 10 mM. Compounds were then serially diluted at 30× final concentration in EDG-1 Transfluor cell growth medium containing 30% DMSO using the Tecan Genesis instrument. […] Plates were then sealed and analysed on the Cellomics Arrayscan using the GPCR signalling algorithm. EC50 values were then calculated using IDBS ActivityBase software.

T1 sequence (P21453 whole entry): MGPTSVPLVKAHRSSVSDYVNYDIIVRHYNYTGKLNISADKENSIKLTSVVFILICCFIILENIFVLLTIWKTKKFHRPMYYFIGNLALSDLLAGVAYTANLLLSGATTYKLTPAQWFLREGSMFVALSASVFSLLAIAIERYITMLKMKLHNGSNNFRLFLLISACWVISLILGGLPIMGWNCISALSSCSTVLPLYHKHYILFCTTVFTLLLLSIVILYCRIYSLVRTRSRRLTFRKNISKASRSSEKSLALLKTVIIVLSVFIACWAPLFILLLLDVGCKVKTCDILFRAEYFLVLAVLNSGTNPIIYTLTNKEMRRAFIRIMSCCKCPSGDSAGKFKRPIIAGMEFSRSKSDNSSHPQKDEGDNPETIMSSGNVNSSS

## Cc1cnc(C(Cc2ccccc2)NS(=O)(=O)c2ccc(Cl)cc2)n1C (stereo not shown) [Example 1, 4-Chloro-N-[1-(1,5-dimethyl-1H-imidazol-2-yl)-2-phenylethyl]benzenesulfonamide]
  EC50: 2120 nM
